Patent US8183371B2, “Pyrazines as delta opioid receptor modulators” (Janssen Pharmaceutica NV, priority 2009, dated 2012)

Key:
delta opioid receptor = biological target: T1, delta opioid receptor (Rattus norvegicus, UniProt P33533); assay: Rat brain delta opioid receptor binding assay; settings: rat forebrain membranes; ~4 nM [3H]DPDPE; read-out: δ-binding (DPDPE ligand) Ki
T1 construct: from tissue; host or cells: forebrain of male Wistar rats
Procedure: (§1) Procedure: Male, Wistar rats (150-250 g, VAF, Charles River, Kingston, N.Y.) were killed by CO2, and their brains were removed and placed immediately in ice cold Tris HCl buffer (50 mM, pH 7.4). The forebrains were separated from the remainder of the brain by a coronal transection, beginning dorsally at the colliculi and passing ventrally through the midbrain-pontine junction. After dissection, the forebrains were homogenized in Tris buffer in a Teflon®-glass homogenizer. The homogenate was diluted to a concentration of 1 g of forebrain tissue per 80 mL Tris and centrifuged at 39,000×g for 10 min. The pellet was resuspended in the same volume of Tris buffer containing 5 mM MgCl2 with several brief pulses from a Polytron homogenizer. This particulate preparation was used for the delta opioid binding assays. Following incubation with the delta selective peptide ligand ˜4 nM [^3H]DPDPE or 0.25 nM [^3H]naltrindole at 25° C. for 2.5 h in a 96-well plate with total volume of 1 mL, the plate contents were filtered through Wallac filtermat B sheets on a Tomtec 96-well harvester. The filters were rinsed three times with 2 mL of 10 mM HEPES (pH 7.4), and dried in a 650 W microwave oven for 1.75 min twice. To each sample area 2×50 μL of Betaplate Scint scintillation fluid (LKB) was added and the radioactivity was quantified on a LKB (Wallac) 1205 BetaPlate liquid scintillation counter.
(§2) Analysis: The data from the scintillation counter were used to calculate either the % inhibition compared to control binding (when only a single concentration of test compound was evaluated) or a Ki value (when a range of concentrations was tested). Percent inhibition was calculated as: [(total dpm−test compound dpm)/(total dpm−nonspecific dpm)]*100. Kd and Ki values were calculated using GraphPad PRISM data analysis program.

δ-opioid receptor = biological target: T2, δ-opioid receptor (Mus musculus, UniProt P32300); assay: [35S]GTPγS binding assay in NG108-15 cell membranes (delta opioid functional assay); type: biochemical; settings: for inhibition at 10 µM: 10 μM compound, read-out: GTPγS δ-opioid receptor % Inh @10 μM; for EC50: read-out: GTPγS δ-opioid receptor EC50
T2 construct: NG108-15 cell membranes were purchased from Applied Cell Sciences (Rockville, Md.); host or cells: NG108-15 cell membranes (purchased)
T2 sequence (P32300 whole entry): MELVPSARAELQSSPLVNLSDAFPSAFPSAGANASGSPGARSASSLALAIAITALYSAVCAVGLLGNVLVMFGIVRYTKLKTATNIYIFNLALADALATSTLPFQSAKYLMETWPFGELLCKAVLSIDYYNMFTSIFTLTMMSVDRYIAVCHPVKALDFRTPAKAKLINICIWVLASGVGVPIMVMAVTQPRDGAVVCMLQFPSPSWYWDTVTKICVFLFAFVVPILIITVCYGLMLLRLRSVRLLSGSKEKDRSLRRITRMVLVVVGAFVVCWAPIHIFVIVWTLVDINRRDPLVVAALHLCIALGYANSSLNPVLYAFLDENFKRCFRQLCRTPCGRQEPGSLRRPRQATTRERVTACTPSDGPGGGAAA
Procedure: Methods: NG108-15 cell membranes were purchased from Applied Cell Sciences (Rockville, Md.). 5 mg/mL of membrane protein was suspended in 10 mM TRIS-HCl pH 7.2, 2 mM EDTA, 10% sucrose. Membranes were maintained at 4-8° C. A 1 mL volume of membranes was added into 10 mL cold binding assay buffer. The assay buffer contained 50 mM Tris, pH 7.6, 5 mM MgCl2, 100 mM NaCl, 1 mM DTT and 1 mM EGTA. The membrane suspension was homogenized twice with a Polytron, and centrifuged at 3000 rpm for 10 min. The supernatant was then centrifuged at 18,000 rpm for 20 min. Ten mL of assay buffer was added into the pellet containing tube. The pellet and buffer were mixed with a Polytron.
Incubation procedure: The pellet membranes (75 μg/mL) were preincubated with SPA beads (10 mg/mL) at 25° C. for 45 min in the assay buffer. The SPA beads (5 mg/mL) coupled with membranes (37.5 μg/mL) were then incubated with 0.1 nM [^35S]GTPγS in the same Tris buffer containing 100 μM GDP in total volume of 200 μL. 200 nM of receptor agonists was used to stimulate [^35S]-GTPγS binding. The basal binding was tested in the absence of agonists and non-specific binding was tested in the presence of 10 μM unlabeled GTPγS.
Data % of Basal=(stimulated−non specific)*100/(basal−non specific). Relative Efficacy of a compound at 200 nM=(% of Basal of test compound at 200 nM)/(Calculated Max of SNC80 dose response. Curve in prism).

mu opioid receptor = biological target: T3, mu opioid receptor (Rattus norvegicus, UniProt P33535); assay: Rat brain mu opioid receptor binding assay; settings: rat forebrain membranes; ~0.8 nM [3H]DAMGO; read-out: μ-binding Ki
T3 construct: from tissue; host or cells: forebrain of male Wistar rats
T3 sequence (P33535 whole entry): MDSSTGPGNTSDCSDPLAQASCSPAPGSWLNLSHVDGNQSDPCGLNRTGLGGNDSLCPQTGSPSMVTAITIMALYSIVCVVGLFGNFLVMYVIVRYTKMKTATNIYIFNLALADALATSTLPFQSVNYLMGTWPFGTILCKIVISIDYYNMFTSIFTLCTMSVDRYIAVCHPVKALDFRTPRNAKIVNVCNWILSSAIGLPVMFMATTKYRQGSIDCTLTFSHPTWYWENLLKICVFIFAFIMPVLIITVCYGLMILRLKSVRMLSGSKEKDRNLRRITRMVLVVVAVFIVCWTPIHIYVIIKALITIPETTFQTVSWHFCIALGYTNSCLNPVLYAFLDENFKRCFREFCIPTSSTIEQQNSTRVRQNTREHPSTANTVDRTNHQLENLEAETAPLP
Procedure: as §1, with “mu” for “delta”, “ligand, ˜0.8” for “ligand ˜4”, “[^3H]DAMGO,” for “[^3H]DPDPE or 0.25 nM [^3H]naltrindole”, “total assay” for “total”, “7.4)” for “7.4),”, “2×40” for “2×50”
as §2

T1 sequence (P33533 whole entry): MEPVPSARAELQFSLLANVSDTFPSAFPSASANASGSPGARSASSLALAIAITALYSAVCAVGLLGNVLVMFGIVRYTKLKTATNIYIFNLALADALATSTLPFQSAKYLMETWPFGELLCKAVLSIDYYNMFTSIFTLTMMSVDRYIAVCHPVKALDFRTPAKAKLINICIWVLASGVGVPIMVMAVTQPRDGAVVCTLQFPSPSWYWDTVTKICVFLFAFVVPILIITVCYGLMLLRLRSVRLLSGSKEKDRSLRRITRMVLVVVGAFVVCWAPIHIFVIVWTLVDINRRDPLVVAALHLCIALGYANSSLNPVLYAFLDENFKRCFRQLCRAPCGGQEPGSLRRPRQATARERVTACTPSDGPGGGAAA

Compound | Ki (delta opioid receptor) | GTPγS δ-opioid receptor Rel Efficacy (δ-opioid receptor) | inhibition at 10 µM (δ-opioid receptor) | EC50 (δ-opioid receptor) | Ki (mu opioid receptor)
COCC#Cc1cnc(NC[C@@H]2CCCN2)c(Oc2ccc(OC)cc2)n1 [Cpd 4] | 1.9 nM | 0.9477 | 1% | 82.5 nM | 4980 nM
COc1ccc(Oc2nc(-c3cccnc3)cnc2NC[C@@H]2CCCN2)cc1 [Cpd 2, [3-(4-Methoxy-phenoxy)-5-pyridin-3-yl-pyrazin-2-yl]-pyrrolidin-2-(S)-ylmethyl-amine] | 2.1 nM | 1.0430 | 1% | 29.7 nM | 816 nM

The next compounds have a lower Ki (delta opioid receptor) than those just listed; values first:

Ki (delta opioid receptor) | GTPγS δ-opioid receptor Rel Efficacy (δ-opioid receptor) | inhibition at 10 µM (δ-opioid receptor) | EC50 (δ-opioid receptor) | Ki (mu opioid receptor) | Compound
1.5 nM | 1.0797 | 1% | 46.2 nM | 3240 nM | COc1ccc(Oc2nc(C#Cc3cccnc3)cnc2NC[C@@H]2CCCN2)cc1 [Cpd 3, [3-(4-Methoxy-phenoxy)-5-pyridin-3-ylethynyl-pyrazin-2-yl]-pyrrolidin-2-(S)-ylmethyl-amine]
0.6 nM | 0.8696 | 6.57% | 58.5 nM | 2390 nM | COc1ccc(Oc2nc(-c3ccc(OC)nc3)cnc2NC[C@@H]2CCCN2)cc1 [Cpd 1]
0.8 nM | 1.0302 | – | 148 nM | 202 nM | COc1ccc(Oc2nc(-c3cncnc3)cnc2NC[C@@H]2CCCN2)cc1F [Cpd 8]
